Measurements published in article PMC12884772, “Macrophagic Sclerostin Loop2‐ApoER2 Interaction Required by Sclerostin for Cardiovascular Protective Action” (Advanced Science, 2025).

Tested on: human differentiated macrophages (THP‐1)
Assay: LPS‐induced inflammatory responses in human differentiated macrophages (THP‐1), siNC or siLrp8
Type: cell-based
Experimental: To determine whether the suppressive effects of sclerostin on inflammatory responses in macrophages were dependent on ApoER2 in vitro, PMA (100 ng/mL, 48 h)‐induced human differentiated macrophages (THP‐1 cells, Procell Life Science & Technology, CL‐0233) and mouse macrophages (RAW 264.7 cells, ATCC, TIB‐71) were utilized. Human differentiated macrophages or mouse macrophages were divided into 9 groups (n = 3 per group), respectively, including (1) siNC, (2) siNC + LPS, (3) siNC + LPS + SOST 500 nM or 250 nM, (4) siNC + LPS + SOST 1 µM or 500 nM, (5) siNC + LPS + SOST 2 µM or 1 µM, (6) siLrp8 + LPS + SOST 500 nM or 250 nM, (7) siLrp8 + LPS + SOST 1µM or 500 nM, (8) siLrp8 + LPS + SOST 2 µM or 1 µM, (9) siLrp8 + LPS. Cells in groups (6‐9) were transfected with siRNA targeting human/mouse Lrp8 (human siLrp8: Santa Cruz Biotechnology sc‐40097, mouse siLrp8: Santa Cruz Biotechnology sc‐40098), while cells in groups (1‐5) were transfected with empty vector as control (siNC). 24 h later, cells in group (3)/(6), (4)/(7), and (5)/(8) were treated with recombinant human or mouse sclerostin for 3 h at concentration of 500 nM or 250 nM, 1 µM or 500 nM, as well as 2 µM or 1 µM, respectively, while cells in groups (1), (2), and (9) were treated with vehicle. Then, cells in groups (2‐9) were treated with LPS (100 ng/mL or 1 µg/mL) for 18 h. All groups of cell lysates were collected for determining the mRNA expression levels of TNF‐α, MCP‐1, and IL‐10 (human or mouse, respectively) by RT‐PCR.^[ [34] ^] Cell mediums were collected for determining the protein expression/secretion levels of TNF‐α, MCP‐1, and IL‐10 (human or mouse, respectively) by ELISA.^[ [34] ^]
Total RNA was extracted from cells following the protocols of Trizol reagent (Invitrogen, 15 596 026). […] The relative gene expression levels were calculated using the 2^−ΔΔCt method with GAPDH as the reference gene.^[ [40] ^] […]

[1] = THP‐1, LPS 100 ng/mL 18 h, recombinant human sclerostin 500 nM-2 µM for 3 h, RT‐PCR and ELISA, n = 3

## sclerostin: recombinant human/mouse full‐length sclerostin protein
[1]
  mRNA expression and protein expression/secretion of IL‐10: promoted
  mRNA expression and protein expression/secretion of TNF‐α and MCP‐1: inhibited
THP‐1 with siLrp8, LPS 100 ng/mL 18 h
  Effects of sclerostin on cytokine/chemokine expression/secretion upon Lrp8 silencing: not detected
